Source: publication PMC5564600 (Oncotarget, 2017)
“And” between values parts separate entries of the source, which are not always exact repeats. Identical values can stand only once.

Columns and labels:
Assay in all cases: biochemical
Type in all cases: binding
[1] = target: T1, panel of 442 kinases (Homo sapiens, UniProt Q8IW41); conditions: kinase MAPKAPK5; for remaining activity at 1 µM: read-out: % of control at 1 µM
T1 construct: purchased Ambit Biosciences (scanMAXX KINOMEscan)
T1 sequence (Q8IW41 1-473): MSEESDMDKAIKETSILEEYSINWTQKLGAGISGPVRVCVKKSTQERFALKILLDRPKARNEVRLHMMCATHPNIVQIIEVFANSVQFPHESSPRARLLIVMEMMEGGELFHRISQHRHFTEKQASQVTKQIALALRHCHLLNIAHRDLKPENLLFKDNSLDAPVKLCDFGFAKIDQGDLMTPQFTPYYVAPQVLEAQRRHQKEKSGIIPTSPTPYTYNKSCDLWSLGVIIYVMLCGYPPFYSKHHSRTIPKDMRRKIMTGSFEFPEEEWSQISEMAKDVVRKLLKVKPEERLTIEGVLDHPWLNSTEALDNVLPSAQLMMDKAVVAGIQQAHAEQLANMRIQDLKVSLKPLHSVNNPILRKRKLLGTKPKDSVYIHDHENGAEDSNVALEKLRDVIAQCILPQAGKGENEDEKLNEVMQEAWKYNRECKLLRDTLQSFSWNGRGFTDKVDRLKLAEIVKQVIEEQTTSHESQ

[2] = target: T2, panel of 442 kinases (Homo sapiens, UniProt P17948); conditions: FLT1; for remaining activity at 1 µM: read-out: % of control at 1 µM
T2 construct: purchased Ambit Biosciences (scanMAXX KINOMEscan)
T2 sequence (P17948 27-1338): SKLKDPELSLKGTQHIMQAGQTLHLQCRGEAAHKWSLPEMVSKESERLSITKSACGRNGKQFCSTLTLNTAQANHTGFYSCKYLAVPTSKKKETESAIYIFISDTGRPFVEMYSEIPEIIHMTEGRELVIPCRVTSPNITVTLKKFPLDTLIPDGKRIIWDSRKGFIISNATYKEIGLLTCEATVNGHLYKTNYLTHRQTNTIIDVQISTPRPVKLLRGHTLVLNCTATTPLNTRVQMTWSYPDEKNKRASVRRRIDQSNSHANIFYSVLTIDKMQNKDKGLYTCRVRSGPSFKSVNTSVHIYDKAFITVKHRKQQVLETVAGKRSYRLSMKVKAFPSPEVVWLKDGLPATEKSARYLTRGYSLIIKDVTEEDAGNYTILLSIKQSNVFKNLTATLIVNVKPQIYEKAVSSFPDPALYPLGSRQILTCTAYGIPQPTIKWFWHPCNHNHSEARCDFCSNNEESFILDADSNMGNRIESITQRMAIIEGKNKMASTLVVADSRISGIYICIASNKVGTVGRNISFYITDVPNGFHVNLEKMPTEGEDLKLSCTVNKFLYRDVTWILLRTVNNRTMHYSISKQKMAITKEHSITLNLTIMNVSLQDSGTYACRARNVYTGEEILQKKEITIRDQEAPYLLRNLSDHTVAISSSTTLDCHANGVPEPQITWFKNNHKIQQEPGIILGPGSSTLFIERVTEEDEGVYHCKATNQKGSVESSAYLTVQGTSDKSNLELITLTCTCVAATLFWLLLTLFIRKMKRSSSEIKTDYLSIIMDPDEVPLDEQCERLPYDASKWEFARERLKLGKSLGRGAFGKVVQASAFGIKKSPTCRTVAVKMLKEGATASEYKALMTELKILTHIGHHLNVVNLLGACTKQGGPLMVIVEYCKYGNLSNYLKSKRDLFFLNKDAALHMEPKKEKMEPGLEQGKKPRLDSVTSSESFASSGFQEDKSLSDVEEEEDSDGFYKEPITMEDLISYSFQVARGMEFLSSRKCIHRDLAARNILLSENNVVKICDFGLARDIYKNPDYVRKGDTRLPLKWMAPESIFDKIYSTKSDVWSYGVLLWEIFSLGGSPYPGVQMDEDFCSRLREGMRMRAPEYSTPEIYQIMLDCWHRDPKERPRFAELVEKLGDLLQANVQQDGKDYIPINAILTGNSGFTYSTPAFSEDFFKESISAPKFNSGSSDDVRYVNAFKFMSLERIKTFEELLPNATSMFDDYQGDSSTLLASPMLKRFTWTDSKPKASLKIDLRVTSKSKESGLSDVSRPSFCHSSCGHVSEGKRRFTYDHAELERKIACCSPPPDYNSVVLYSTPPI

[3] = target: T3, panel of 442 kinases (Homo sapiens, UniProt P31749); conditions: AKT1; for remaining activity at 1 µM: read-out: % of control at 1 µM
T3 construct: purchased Ambit Biosciences (scanMAXX KINOMEscan)
T3 sequence (P31749 whole entry): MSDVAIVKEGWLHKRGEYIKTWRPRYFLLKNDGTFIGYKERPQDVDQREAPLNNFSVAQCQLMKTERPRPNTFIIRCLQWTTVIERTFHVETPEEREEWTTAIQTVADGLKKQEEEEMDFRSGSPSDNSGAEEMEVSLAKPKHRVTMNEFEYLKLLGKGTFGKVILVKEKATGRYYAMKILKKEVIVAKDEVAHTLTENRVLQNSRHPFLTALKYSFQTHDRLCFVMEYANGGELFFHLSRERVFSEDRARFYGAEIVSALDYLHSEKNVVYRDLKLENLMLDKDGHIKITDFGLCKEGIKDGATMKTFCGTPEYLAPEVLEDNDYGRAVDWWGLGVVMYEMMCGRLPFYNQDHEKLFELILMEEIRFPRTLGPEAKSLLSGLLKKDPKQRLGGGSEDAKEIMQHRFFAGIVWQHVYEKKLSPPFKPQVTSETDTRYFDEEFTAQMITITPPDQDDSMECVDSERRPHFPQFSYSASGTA

[4] = target: T4, panel of 442 kinases (Homo sapiens, UniProt P37173); conditions: kinase TGFBR2; for remaining activity at 1 µM: read-out: TGFBR2 (% of control at 1 µM)
T4 construct: purchased Ambit Biosciences (scanMAXX KINOMEscan)
T4 sequence (P37173 23-567): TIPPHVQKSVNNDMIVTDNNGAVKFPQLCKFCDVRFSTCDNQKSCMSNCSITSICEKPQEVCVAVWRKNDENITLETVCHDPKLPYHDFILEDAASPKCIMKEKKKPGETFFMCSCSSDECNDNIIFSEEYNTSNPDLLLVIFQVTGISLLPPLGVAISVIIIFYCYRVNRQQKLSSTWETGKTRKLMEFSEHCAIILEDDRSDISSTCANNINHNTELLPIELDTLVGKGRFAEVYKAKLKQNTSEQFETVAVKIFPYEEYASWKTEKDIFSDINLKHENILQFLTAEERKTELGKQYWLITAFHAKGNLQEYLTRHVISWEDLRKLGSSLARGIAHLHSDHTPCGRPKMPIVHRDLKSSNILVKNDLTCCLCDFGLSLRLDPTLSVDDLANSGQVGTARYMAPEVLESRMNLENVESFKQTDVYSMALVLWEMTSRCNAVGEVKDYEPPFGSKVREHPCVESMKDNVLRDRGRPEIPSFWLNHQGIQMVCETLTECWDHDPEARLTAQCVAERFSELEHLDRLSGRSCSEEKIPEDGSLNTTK

[5] = target: T5, panel of 442 kinases (Homo sapiens, UniProt P08922); conditions: kinase ROS1; for remaining activity at 1 µM: read-out: ROS1 (% of control at 1 µM)
T5 construct: purchased Ambit Biosciences (scanMAXX KINOMEscan)
T5 sequence (P08922 28-2347): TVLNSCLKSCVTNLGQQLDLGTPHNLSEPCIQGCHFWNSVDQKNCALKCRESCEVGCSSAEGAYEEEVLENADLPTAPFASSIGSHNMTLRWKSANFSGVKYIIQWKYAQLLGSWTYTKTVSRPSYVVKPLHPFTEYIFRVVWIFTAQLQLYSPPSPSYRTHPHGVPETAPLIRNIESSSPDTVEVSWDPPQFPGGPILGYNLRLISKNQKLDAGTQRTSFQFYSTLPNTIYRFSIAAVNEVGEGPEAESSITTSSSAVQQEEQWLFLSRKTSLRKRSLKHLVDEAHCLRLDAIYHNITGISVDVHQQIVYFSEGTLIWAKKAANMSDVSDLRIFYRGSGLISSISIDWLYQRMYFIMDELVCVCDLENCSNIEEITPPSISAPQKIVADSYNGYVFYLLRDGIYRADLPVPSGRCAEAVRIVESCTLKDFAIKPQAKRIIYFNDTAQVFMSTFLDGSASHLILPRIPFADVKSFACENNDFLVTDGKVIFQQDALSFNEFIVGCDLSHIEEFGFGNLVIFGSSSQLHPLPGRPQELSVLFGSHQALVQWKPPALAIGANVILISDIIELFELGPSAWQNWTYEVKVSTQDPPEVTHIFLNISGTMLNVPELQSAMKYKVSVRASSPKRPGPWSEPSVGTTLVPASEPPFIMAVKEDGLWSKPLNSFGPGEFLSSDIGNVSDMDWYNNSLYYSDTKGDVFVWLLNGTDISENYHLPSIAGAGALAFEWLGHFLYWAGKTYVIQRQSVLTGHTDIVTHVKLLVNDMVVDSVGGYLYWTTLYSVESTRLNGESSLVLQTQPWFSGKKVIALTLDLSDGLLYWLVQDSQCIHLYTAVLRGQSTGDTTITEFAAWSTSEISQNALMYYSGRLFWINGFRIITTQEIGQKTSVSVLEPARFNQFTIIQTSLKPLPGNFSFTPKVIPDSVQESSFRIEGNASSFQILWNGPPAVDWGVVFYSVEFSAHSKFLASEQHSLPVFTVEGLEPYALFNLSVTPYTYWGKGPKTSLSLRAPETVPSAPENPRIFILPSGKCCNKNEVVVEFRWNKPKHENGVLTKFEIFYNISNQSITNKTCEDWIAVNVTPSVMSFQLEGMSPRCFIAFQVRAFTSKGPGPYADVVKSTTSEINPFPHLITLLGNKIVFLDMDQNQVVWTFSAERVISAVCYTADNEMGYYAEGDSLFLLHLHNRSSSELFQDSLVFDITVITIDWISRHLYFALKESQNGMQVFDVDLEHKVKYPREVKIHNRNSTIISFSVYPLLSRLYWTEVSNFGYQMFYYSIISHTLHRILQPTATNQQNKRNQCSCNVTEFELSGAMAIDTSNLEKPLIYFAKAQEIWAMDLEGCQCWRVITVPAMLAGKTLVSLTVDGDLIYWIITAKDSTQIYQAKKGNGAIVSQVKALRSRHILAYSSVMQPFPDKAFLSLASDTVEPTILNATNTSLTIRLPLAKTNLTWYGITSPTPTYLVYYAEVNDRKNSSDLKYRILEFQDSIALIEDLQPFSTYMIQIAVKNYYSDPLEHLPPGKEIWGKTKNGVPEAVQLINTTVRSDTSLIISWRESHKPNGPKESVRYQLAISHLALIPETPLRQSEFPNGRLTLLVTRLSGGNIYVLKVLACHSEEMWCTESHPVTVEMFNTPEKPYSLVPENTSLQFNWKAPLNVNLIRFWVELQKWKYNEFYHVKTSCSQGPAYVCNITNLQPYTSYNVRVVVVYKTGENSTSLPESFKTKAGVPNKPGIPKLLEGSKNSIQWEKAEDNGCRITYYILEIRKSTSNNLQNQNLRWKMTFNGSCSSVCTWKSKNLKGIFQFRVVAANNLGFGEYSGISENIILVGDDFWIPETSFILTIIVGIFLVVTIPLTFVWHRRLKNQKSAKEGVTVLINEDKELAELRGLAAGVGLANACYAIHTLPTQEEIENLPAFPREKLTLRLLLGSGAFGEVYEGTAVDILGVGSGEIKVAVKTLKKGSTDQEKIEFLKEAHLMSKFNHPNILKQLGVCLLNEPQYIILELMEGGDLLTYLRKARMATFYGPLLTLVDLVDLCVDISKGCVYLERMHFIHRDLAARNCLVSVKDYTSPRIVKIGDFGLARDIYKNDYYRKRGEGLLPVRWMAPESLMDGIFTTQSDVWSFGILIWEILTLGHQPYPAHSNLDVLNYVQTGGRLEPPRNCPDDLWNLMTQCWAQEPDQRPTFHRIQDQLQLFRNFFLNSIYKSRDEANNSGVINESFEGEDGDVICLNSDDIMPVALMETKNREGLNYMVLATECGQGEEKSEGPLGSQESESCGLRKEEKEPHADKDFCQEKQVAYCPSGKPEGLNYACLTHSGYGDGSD

[6] = system: panel of 442 kinases
[7] = target: T6, panel of 442 kinases (Homo sapiens, UniProt O00329); conditions: kinase PIK3CD; 1 µM; read-out: % of control at 1 µM
T6 construct: purchased Ambit Biosciences (scanMAXX KINOMEscan)
T6 sequence (O00329 1-1044): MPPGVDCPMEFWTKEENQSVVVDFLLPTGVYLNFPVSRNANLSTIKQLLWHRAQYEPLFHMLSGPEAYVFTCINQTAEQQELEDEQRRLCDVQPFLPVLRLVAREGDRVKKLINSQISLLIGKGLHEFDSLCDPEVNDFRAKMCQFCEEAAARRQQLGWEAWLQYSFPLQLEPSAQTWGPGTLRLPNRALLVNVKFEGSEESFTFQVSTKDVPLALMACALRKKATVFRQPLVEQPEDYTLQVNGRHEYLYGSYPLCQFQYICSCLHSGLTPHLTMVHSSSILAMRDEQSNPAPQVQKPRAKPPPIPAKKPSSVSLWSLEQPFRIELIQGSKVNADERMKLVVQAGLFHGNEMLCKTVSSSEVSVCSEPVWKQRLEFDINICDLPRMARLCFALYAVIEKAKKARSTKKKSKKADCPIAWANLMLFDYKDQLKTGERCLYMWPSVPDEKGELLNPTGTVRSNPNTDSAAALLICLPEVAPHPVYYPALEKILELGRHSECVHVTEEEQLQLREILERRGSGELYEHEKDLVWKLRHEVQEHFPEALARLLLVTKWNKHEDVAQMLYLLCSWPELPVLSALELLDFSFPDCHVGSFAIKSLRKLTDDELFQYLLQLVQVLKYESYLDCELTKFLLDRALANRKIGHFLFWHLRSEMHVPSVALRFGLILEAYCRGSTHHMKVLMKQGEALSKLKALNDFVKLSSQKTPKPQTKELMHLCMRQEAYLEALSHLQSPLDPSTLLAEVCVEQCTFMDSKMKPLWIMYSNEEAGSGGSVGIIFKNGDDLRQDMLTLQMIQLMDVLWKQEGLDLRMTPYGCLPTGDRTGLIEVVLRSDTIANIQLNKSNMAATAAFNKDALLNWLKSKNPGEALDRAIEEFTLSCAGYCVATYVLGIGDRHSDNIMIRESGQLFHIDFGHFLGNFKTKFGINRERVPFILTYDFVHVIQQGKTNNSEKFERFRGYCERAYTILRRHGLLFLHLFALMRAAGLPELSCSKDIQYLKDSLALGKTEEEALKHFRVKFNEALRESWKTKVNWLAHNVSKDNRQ

[8] = 10 µM, read-out: % of control at 10 µM
[9] = EGFR(L747-E749del, A750P), 1 µM
[10] = EGFR(L747-S752del, P753S), 1 µM
[11] = kinase KIT(D816V), first of two lines so named (r206), 1 µM

Compound	remaining activity at 1 µM [1] [%]	remaining activity at 10 µM [1, 8] [%]	remaining activity at 1 µM [2] [%]	remaining activity at 10 µM [2, 8] [%]	remaining activity at 1 µM [3] [%]	remaining activity at 10 µM [3, 8] [%]	remaining activity at 1 µM [4] [%]	remaining activity at 10 µM ([4]; 10 µM, read-out: TGFBR2 (% of control at 10 µM)) [%]	remaining activity at 1 µM [5] [%]	remaining activity at 10 µM ([5]; 10 µM, read-out: ROS1 (% of control at 10 µM)) [%]	% of control at 1 µM ([6]; 1 μM)	% of control at 10 µM ([6]; 10 μM)	remaining activity at 1 µM [7] [%]	% of control at 1 µM ([6]; FLT3(ITD), 1 µM)	% of control at 1 µM [6, 9]	% of control at 1 µM [6, 10]	% of control at 1 µM ([6]; EGFR(L747-T751del,Sins), 1 µM)	% of control at 1 µM [6, 11]
Nc1cc(C(F)(F)F)c(-c2cc(N3CCOCC3)nc(N3CCOCC3)n2)cn1 [Buparlisib]	100	100	100	100	94	100	98	100	84	79	85 % of control and 100 % of control and 91 % of control and 86 % of control	96 % of control and 100 % of control and 93 % of control and 88 % of control	–	–	–	–	–	–
Cn1c(=O)n(-c2ccc(C(C)(C)C#N)cc2)c2c3cc(-c4cnc5ccccc5c4)ccc3ncc21 [Dactolisib, 2-methyl-2-[4-(3-methyl-2-oxo-8-quinolin-3-yl-2,3-dihydroimidazo[4,5-c]quinolin-1-yl)-phenyl] propionitrile]	100	–	86	–	100	–	100	–	100	–	81 % of control and 100 % of control and 86 % of control and 59 % of control	–	12	44 % of control	–	–	–	–
COc1ncc(-c2ccc3nccc(-c4ccnnc4)c3c2)cc1NS(=O)(=O)c1ccc(F)cc1F [Omipalisib]	100	–	100	–	59	–	95	–	100	–	–	–	0	100 % of control	92 % of control	87 % of control	100 % of control	100 % of control
CS(=O)(=O)N1CCN(Cc2cc3nc(-c4cccc5[nH]ncc45)nc(N4CCOCC4)c3s2)CC1 [Pictilisib, 2-(1H-indazol-4-yl)-6-(4-methanesulfonyl-piperazin-1-ylmethyl)-4-morpholin-4-yl-t hieno[3,2-d]pyrimidine]	–	–	–	–	–	–	–	–	–	–	98 % of control and 70 % of control and 99 % of control and 77 % of control and 72 % of control	–	–	–	–	–	–	–
FC(F)c1nc2ccccc2n1-c1nc(N2CCOCC2)nc(N2CCOCC2)n1 [ZSTK474, 2-(difluoromethyl)-1-[4,6-di(4-morpholinyl)-1,3,5-triazin-2-yl]-1H-benzimidazole]	100	–	100	–	100	–	100	–	100	–	–	–	0	99 % of control	89 % of control	100 % of control	100 % of control	100 % of control
